Measured values reported in PMC11539244, “Relative inhibitory activities of newly developed diazabicyclooctanes, boronic acid derivatives, and penicillin-based sulfone β-lactamase inhibitors against broad-spectrum AmpC β-lactamases” (Antimicrobial Agents and Chemotherapy, 2024).
Where two headings read alike, the source gives them in different places.

Columns and labels:
ACC-1 = ACC-1 (Hafnia alvei, UniProt Q9XB24); test: IC50 of β-lactamase inhibitors, crude extract, ACC-1; assay type: biochemical
FOX-5 = FOX-5 (Aeromonas allosaccharophila, UniProt Q9F4K3); test: IC50 of β-lactamase inhibitors, crude extract, FOX-5; assay type: biochemical
ACT-7 = ACT-7 (Enterobacter asburiae, UniProt B6V6L3); test: biochemical
ACT-17 = ACT-17 (Enterobacter asburiae, UniProt P05364); assay type: biochemical; settings: crude extract of E. coli TOP10 recombinant strain, mean of triplicate
CMY-2 = target: T1, CMY-2 (Klebsiella pneumoniae, UniProt Q48434); test: biochemical; design: species or system Citrobacter spp.
T1 construct: made in house; host or cells: E. coli TOP10, plasmid pUCp24

CMY-42 = target: T2, CMY-42 (Klebsiella pneumoniae, UniProt Q48434, V231S); test: biochemical; design: species or system Citrobacter spp.
T2 construct: made in house; host or cells: E. coli TOP10, plasmid pUCp24

DHA-1 = DHA-1 (Morganella morganii, UniProt P94958); test: IC50 of β-lactamase inhibitors, crude extract, DHA-1; assay type: biochemical
LAT-1 = LAT-1 (Citrobacter portucalensis, UniProt Q48443); test: biochemical
MOX-2 = MOX-2 (Aeromonas caviae, UniProt Q9L3G2); test: IC50 of β-lactamase inhibitors, crude extract, MOX-2; assay type: biochemical
MIR-17 = test: IC50 of β-lactamase inhibitors, crude extract, MIR-17; assay type: biochemical, Enterobacter roggenkampii; settings: crude extract of E. coli TOP10 recombinant strain, mean of triplicate
Ear-1 = Ear-1 (Klebsiella aerogenes, UniProt A0A0H3FRQ3); test: IC50 of β-lactamase inhibitors, crude extract, Ear-1; assay type: biochemical
SRT-1 = SRT-1 (Serratia marcescens, UniProt P18539); test: IC50 of β-lactamase inhibitors, crude extract, SRT-1; assay type: biochemical; settings: crude extract of E. coli TOP10 recombinant strain, mean of triplicate
ADC-50 = ADC-50 (Acinetobacter baumannii, UniProt Q6DRA1); test: IC50 of β-lactamase inhibitors, crude extract, ADC-50; assay type: biochemical, A. baumannii
YRC-1 = YRC-1 (Yersinia ruckeri, UniProt Q20I87); test: IC50 of β-lactamase inhibitors, crude extract, YRC-1; assay type: biochemical
PDC-1 = target: T3, PDC-1 (Pseudomonas aeruginosa, UniProt P24735); test: biochemical; design: species or system P. aeruginosa
T3 construct: made in house; host or cells: E. coli TOP10, plasmid pUCp24

PDC-5 = target: T4, PDC-5 (Pseudomonas aeruginosa, UniProt P24735, R79Q/T105A); test: biochemical; design: species or system P. aeruginosa
T4 construct: made in house; host or cells: E. coli TOP10, plasmid pUCp24

PDC-382 = PDC-382 (Pseudomonas aeruginosa, UniProt P24735, T96I); test: biochemical; design: species or system P. aeruginosa
E. coli TOP10 = test: microbe, parasite or virus in culture; assay type: cell-based; settings: Escherichia coli, TOP10; E. coli TOP 10; β-lactamase inhibitor alone; read-out: MIC values of inhibitor alone
Experimental: (§1) In order to assess the relative inhibitory activities of those BLI against AmpC β-lactamases, the corresponding blaampC genes without the original promoter sequences were amplified by PCR with specific primers, and corresponding amplicons were cloned into plasmid pUCp24, as described previously ([12], [13]). […] Cultures of E. coli TOP10 harboring recombinant plasmids and therefore producing the different AmpC tested were grown overnight at 37°C in Luria-Bertani agar medium containing amoxicillin (AMX) (50 µg/mL). The activity of the following acquired class C β-lactamases could therefore be evaluated, namely, ACC-1 (originally from Hafnia spp.), FOX-5 (from Aeromonas allosaccharophila), CMY-2 and CMY-42 (from Citrobacter spp.), DHA-1 (from Morganella morganii), ACT-7 and ACT-17 (from Enterobacter asburiae), MIR-17 (from Enterobacter roggenkampii), MOX-2 (from Aeromonas caviae), and LAT-1 (from Citrobacter portucalensis) ([5]). […] Altogether, these enzymes were chosen as representatives of clinically relevant class C β-lactamases being sources of intrinsic or acquired resistance to broad-spectrum β-lactams among most of the commonly identified Gram-negative bacteria in clinical practice.
(§2) MICs were determined in triplicate by broth microdilution (BMD) for CAZ and AMX, as well as their combinations with each β-lactamase inhibitor. CAZ, AMX, and CLA were purchased from Sigma-Aldrich (St. Louis, MO, USA). All others inhibitors (TAZ HY-W009168, AVI HY-14879, REL HY-16752, VAB HY-19930, NAC HY-109008, ZID HY-120859, TAN HY-109124, XER HY-136072, DUR HY-117974, EMT HY-103095) were purchased from MedChem Express (Luzern, Switzerland). The concentration of each β-lactamase inhibitor was chosen as the concentration used in the respective BL/BLI combination under development or commercially available, according to EUCAST or CLSI ([18], [19]). […] BMD assays were performed in cation-adjusted Mueller-Hinton (MH) broth (Bio-Rad, Marnes-la-Coquette, France) for all antibiotics or antibiotic combinations listed above, according to the EUCAST guidelines ([20]).

[1] = test system: E. coli ADC-50 (E. coli TOP10 recombinant strain); test: microbe, parasite or virus in culture; assay type: cell-based, Escherichia coli; settings: ADC-50 (cAmpC of A. baumannii); susceptibility testing of recombinant E. coli
Experimental: as §1, §2

[2] = ADC-50, crude extract of E. coli TOP10 recombinant strain, mean of triplicate
[3] = ACC-1, crude extract of E. coli TOP10 recombinant strain, mean of triplicate, read-out: IC50
[4] = FOX-5, crude extract of E. coli TOP10 recombinant strain, mean of triplicate, read-out: IC50
[5] = ACT-7, crude extract of E. coli TOP10 recombinant strain, mean of triplicate, read-out: IC50
[6] = CMY-42, crude extract of E. coli TOP10 recombinant strain, mean of triplicate, read-out: IC50
[7] = DHA-1, crude extract of E. coli TOP10 recombinant strain, mean of triplicate, read-out: IC50
[8] = LAT-1, crude extract of E. coli TOP10 recombinant strain, mean of triplicate, read-out: IC50
[9] = MOX-2, crude extract of E. coli TOP10 recombinant strain, mean of triplicate, read-out: IC50
[10] = Ear-1, crude extract of E. coli TOP10 recombinant strain, mean of triplicate, read-out: IC50
[11] = PDC-1, crude extract of E. coli TOP10 recombinant strain, mean of triplicate, read-out: IC50
[12] = PDC-5, crude extract of E. coli TOP10 recombinant strain, mean of triplicate, read-out: IC50
[13] = PDC-382, crude extract of E. coli TOP10 recombinant strain, mean of triplicate, read-out: IC50
[14] = ADC-50, crude extract of E. coli TOP10 recombinant strain, mean of triplicate, read-out: IC50
[15] = YRC-1, crude extract of E. coli TOP10 recombinant strain, mean of triplicate, read-out: IC50

YRC-1, sequence (Q20I87 entry or part of it): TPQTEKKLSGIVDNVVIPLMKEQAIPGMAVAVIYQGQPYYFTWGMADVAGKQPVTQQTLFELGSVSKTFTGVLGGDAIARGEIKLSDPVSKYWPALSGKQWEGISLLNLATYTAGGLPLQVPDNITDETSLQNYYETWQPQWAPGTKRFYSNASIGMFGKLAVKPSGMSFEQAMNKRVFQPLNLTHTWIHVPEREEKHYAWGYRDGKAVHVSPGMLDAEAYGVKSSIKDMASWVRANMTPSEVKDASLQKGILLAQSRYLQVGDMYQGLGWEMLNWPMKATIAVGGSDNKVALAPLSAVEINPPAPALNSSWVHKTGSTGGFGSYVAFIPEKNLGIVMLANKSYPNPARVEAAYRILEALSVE
T2 sequence (Q48434 21-381 V231S): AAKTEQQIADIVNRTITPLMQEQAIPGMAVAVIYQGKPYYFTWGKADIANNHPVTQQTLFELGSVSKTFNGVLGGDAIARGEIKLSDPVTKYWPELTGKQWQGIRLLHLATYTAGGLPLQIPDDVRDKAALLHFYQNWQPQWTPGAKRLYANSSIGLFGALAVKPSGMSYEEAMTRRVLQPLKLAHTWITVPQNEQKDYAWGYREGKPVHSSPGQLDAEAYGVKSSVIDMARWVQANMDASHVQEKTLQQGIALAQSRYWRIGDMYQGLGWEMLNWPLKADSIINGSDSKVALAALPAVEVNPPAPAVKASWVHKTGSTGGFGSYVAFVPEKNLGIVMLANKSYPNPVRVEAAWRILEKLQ
Ear-1, sequence (A0A0H3FRQ3 entry or part of it): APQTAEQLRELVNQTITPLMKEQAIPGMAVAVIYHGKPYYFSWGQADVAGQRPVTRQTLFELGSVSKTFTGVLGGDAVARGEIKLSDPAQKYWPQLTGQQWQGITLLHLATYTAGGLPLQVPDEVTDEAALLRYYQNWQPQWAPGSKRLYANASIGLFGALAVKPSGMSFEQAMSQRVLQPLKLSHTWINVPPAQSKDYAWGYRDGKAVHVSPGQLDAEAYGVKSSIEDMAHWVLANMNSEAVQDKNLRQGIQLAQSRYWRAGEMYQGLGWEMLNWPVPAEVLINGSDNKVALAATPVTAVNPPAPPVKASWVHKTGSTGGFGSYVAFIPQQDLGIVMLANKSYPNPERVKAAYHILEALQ
SRT-1, sequence (P18539 22-376): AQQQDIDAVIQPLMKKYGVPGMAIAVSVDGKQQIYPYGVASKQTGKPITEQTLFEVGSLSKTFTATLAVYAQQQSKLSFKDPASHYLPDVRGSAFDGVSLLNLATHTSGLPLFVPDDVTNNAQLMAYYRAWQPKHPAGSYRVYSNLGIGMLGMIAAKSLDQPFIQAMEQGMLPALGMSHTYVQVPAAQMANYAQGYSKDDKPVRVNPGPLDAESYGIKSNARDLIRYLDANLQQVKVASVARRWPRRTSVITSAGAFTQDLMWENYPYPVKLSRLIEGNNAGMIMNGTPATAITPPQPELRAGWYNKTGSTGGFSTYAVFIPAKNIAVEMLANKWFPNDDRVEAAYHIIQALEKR
ACT-7, sequence (B6V6L3 entry or part of it): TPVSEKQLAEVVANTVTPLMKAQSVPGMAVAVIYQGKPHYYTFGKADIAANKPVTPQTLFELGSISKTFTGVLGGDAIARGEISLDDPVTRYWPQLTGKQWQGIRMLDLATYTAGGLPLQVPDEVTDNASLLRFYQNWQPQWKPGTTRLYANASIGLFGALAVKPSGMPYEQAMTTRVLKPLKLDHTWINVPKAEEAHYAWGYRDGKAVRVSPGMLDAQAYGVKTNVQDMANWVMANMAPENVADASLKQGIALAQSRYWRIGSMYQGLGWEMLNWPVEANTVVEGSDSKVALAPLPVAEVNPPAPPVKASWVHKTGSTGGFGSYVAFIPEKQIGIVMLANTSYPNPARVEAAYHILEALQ
T4 sequence (P24735 27-397 R79Q/T105A): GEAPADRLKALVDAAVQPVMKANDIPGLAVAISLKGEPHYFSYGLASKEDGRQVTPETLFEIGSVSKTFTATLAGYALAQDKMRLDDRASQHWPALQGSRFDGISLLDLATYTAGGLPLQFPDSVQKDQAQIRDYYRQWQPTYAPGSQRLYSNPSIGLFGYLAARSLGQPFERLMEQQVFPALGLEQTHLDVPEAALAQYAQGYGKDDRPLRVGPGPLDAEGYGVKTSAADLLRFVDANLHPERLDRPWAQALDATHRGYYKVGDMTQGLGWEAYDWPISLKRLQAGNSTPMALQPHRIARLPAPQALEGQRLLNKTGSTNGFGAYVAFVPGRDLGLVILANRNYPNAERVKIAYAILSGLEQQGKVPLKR
FOX-5, sequence (Q9F4K3 entry or part of it): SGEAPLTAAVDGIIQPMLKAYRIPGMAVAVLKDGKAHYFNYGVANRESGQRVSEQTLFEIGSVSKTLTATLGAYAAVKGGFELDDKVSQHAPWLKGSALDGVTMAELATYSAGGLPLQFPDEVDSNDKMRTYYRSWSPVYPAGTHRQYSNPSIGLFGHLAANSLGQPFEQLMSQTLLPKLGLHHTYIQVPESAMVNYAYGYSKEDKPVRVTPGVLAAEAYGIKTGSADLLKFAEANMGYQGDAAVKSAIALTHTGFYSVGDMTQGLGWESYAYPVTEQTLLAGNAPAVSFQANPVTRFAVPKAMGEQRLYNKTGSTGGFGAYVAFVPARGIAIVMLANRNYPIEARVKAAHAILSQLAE
MOX-2, sequence (Q9L3G2 entry or part of it): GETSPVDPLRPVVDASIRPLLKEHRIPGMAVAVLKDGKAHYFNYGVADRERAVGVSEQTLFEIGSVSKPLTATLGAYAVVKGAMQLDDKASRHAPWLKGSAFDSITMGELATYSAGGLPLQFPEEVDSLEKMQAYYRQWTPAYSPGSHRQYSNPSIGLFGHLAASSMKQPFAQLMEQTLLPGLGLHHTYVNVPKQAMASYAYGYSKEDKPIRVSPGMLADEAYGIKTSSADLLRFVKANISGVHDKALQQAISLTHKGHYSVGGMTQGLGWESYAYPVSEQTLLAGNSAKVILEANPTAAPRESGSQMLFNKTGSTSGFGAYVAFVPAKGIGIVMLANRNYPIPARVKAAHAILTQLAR
T1 sequence (Q48434 21-381): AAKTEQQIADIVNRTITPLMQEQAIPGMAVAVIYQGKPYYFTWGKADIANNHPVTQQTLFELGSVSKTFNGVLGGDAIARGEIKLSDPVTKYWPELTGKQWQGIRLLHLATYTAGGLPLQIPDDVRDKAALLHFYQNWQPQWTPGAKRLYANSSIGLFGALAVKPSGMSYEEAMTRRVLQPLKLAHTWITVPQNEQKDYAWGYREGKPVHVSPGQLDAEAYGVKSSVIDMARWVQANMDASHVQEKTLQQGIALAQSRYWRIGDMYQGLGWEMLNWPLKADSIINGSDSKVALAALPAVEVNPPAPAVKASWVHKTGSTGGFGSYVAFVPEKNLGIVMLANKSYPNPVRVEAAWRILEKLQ
PDC-382, sequence (P24735 27-397 T96I): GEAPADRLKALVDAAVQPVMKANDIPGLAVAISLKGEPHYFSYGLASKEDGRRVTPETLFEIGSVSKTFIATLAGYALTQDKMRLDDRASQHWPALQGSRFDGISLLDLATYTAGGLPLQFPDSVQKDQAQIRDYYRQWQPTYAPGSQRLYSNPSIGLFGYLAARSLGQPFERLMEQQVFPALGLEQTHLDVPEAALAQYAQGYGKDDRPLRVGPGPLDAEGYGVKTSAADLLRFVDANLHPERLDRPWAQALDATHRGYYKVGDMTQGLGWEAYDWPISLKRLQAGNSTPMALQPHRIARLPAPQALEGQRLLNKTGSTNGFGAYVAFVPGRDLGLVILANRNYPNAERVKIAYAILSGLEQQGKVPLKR
ACC-1, sequence (Q9XB24 entry or part of it): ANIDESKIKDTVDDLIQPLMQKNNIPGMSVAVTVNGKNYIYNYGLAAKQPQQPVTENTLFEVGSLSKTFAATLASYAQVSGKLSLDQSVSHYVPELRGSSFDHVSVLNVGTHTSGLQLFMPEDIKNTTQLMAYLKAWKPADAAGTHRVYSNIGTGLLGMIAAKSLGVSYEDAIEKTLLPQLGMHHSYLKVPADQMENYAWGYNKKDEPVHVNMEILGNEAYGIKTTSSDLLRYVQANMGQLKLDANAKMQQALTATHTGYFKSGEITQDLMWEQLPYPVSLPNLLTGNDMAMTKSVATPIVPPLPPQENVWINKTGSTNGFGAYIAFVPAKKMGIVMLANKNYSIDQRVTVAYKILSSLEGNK
LAT-1, sequence (Q48443 entry or part of it): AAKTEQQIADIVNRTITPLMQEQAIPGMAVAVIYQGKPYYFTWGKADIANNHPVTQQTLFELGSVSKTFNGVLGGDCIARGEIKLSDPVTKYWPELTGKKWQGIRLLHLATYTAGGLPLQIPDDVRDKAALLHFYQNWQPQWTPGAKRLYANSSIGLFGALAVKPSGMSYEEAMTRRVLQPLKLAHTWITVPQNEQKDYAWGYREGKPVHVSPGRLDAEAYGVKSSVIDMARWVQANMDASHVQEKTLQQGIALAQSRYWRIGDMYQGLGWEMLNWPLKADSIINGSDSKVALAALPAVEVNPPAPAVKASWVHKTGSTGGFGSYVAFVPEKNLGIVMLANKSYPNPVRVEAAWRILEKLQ
ACT-17, sequence (P05364 21-381): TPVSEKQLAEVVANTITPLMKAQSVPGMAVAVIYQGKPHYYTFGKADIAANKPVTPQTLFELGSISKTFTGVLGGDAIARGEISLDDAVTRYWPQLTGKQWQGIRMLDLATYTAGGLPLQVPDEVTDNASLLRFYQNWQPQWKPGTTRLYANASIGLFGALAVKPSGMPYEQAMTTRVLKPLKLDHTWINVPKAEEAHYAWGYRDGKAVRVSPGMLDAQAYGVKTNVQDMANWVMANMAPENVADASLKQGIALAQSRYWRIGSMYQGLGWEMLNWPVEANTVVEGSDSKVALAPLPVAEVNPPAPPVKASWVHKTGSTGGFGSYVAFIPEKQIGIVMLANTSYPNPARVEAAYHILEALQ

SMILES	IC50 (ACC-1)	IC50 (FOX-5)	IC50 (ACT-7)	IC50 (ACT-17)	IC50 (CMY-2)	IC50 (CMY-42)	IC50 (DHA-1)	IC50 (LAT-1)	IC50 (MOX-2)	IC50 (MIR-17)	IC50 (Ear-1)	IC50 (SRT-1)	IC50 (ADC-50; [2])	IC50 (YRC-1)	IC50 (PDC-1)	IC50 (PDC-5)	IC50 (PDC-382)	MIC (E. coli TOP10)	inhibition of ADC-50 (in words) (ADC-50; ADC-50 of A. baumannii)	also measured
NC(=O)[C@@H]1CC[C@@H]2CN1C(=O)N2OS(=O)(=O)O [Avibactam, avibactam]	250 nM	1000 nM	800 nM	900 nM	610 nM	650 nM	110 nM	400 nM	5600 nM	1000 nM	880 nM	6.7 µM	61 µM	2100 nM						IC50 (ADC-50; ADC-50, crude extract of E. coli TOP10 recombinant strain, mean of triplicate, listed as AVI): > 13 µM
O=C(O)[C@H]1/C(=C/CO)O[C@@H]2CC(=O)N21 [Clavulanic acid, clavulanic acid]	> 100000 nM	> 100000 nM	> 100000 nM		> 100000 nM	> 100000 nM	> 100000 nM	> 100000 nM	> 100000 nM	> 100000 nM	> 100000 nM	> 100 µM	> 100 µM	> 100000 nM	> 100 µM	> 100000 nM	> 100 µM			
CC1=C[C@@H]2CN(C(=O)N2OS(=O)(=O)O)[C@@H]1C(N)=O [Durlobactam, durlobactam]	5 nM	22 nM	4 nM	3 nM	4 nM	11 nM	4 nM	5 nM	55 nM	5 nM	6 nM	0.022 µM	0.17 µM	5 nM	0.009 µM	13 nM	0.1 µM	0.125 µg/mL		IC50 (ADC-50; read-out: IC50 value, ADC-50 of A. baumannii): 0.00017 µM
Cn1cc[n+](C[C@@]2(C)[C@H](C(=O)[O-])N3C(=O)C[C@H]3S2(=O)=O)n1 [Enmetazobactam, enmetazobactam]										> 100000 nM									not significantly inhibited	IC50 (ACC-1; [3]): 39000 nM; IC50 (FOX-5; [4]): > 100000 nM; IC50 (ACT-7; [5]): 43000 nM; IC50 (ACT-17; read-out: IC50): 62000 nM; IC50 (CMY-2; CMY-2, crude extract of E. coli TOP10 recombinant strain, mean of triplicate, read-out: IC50): 40000 nM; IC50 (CMY-42; [6]): 64000 nM; IC50 (DHA-1; [7]): 26000 nM; IC50 (LAT-1; [8]): 97000 nM; IC50 (MOX-2; [9]): > 100000 nM; IC50 (Ear-1; [10]): 91000 nM; IC50 (SRT-1; read-out: IC50): > 100 µM; IC50 (PDC-1; [11]): > 100 µM; IC50 (PDC-5; [12]): > 100000 nM; IC50 (PDC-382; [13]): > 100 µM; IC50 (ADC-50; [14]): > 100 µM; IC50 (YRC-1; [15]): > 100000 nM
NCCONC(=O)[C@@H]1CC[C@@H]2CN1C(=O)N2OS(=O)(=O)O [Nacubactam, nacubactam]	450 nM	5300 nM	370 nM	290 nM	420 nM	1700 nM	500 nM	290 nM	4100 nM	600 nM	280 nM	70 µM	> 100 µM	130 nM	5.1 µM	1200 nM	34 µM	4 µg/mL	not significantly inhibited	
O=C(NC1CCNCC1)[C@@H]1CC[C@@H]2CN1C(=O)N2OS(=O)(=O)O [Relebactam, relebactam]	580 nM	2000 nM	710 nM	330 nM	590 nM	1100 nM	850 nM	230 nM	2400 nM	1300 nM	890 nM	37 µM	13 µM	1900 nM						IC50 (ADC-50; ADC-50, crude extract of E. coli TOP10 recombinant strain, mean of triplicate, listed as REL): > 13 µM
NCCN[C@H]1CC[C@H](CC(=O)N[C@H]2Cc3cccc(C(=O)O)c3OB2O)CC1 [Taniborbactam, taniborbactam]										30 nM									not significantly inhibited	sensitivity of ADC-50 β-lactamase to inhibitor (in words) [1]: resistant; IC50 (ACC-1; [3]): 180 nM; IC50 (FOX-5; [4]): 160 nM; IC50 (ACT-7; [5]): 190 nM; IC50 (ACT-17; read-out: IC50): 210 nM; IC50 (CMY-42; [6]): 680 nM; IC50 (DHA-1; [7]): 120 nM; IC50 (LAT-1; [8]): 230 nM; IC50 (MOX-2; [9]): 320 nM; IC50 (Ear-1; [10]): 110 nM; IC50 (SRT-1; read-out: IC50): 0.06 µM; IC50 (PDC-1; [11]): 1.1 µM; IC50 (PDC-5; [12]): 510 nM; IC50 (PDC-382; [13]): 5 µM; IC50 (ADC-50; [14]): 26 µM; IC50 (YRC-1; [15]): 100 nM
C[C@]1(Cn2ccnn2)[C@H](C(=O)O)N2C(=O)C[C@H]2S1(=O)=O [Tazobactam, tazobactam]	2100 nM	23000 nM	23000 nM		20000 nM	24000 nM	1300 nM	7300 nM	> 100000 nM	83000 nM	72000 nM	48 µM	> 100 µM	> 100000 nM						
O=C(O)C[C@@H]1CC[C@H](NC(=O)Cc2cccs2)B(O)O1 [Vaborbactam, vaborbactam]	3600 nM	17000 nM	3600 nM	2600 nM	5300 nM	13000 nM	3100 nM	1200 nM	1900 nM	1100 nM	840 nM	6.9 µM	> 100 µM	2000 nM	11 µM	37000 nM	54 µM		not significantly inhibited	
O=C(NNC(=O)[C@@H]1CC[C@@H]2CN1C(=O)N2OS(=O)(=O)O)[C@@H]1CCCNC1 [Zidebactam, zidebactam]	90 nM	990 nM	120 nM	140 nM	120 nM	170 nM	60 nM	5 nM	2700 nM	110 nM	120 nM	37 µM	5.5 µM	90 nM				0.125 µg/mL		IC50 (ADC-50; ADC-50, crude extract of E. coli TOP10 recombinant strain, mean of triplicate, listed as ZID): 5 µM
